Measurements reported in patent publication US11932658B2 (BRISTOL-MYERS SQUIBB COMPANY, priority 2016, dated 2024).

Target: T1, PAR4 (Homo sapiens, UniProt Q96RI0)
T1 construct: expressed in transfected cells; host or cells: HEK293 PAR4 Clone 1.2A (BMS Arctic ID 383940)
T1 sequence (Q96RI0 18-385): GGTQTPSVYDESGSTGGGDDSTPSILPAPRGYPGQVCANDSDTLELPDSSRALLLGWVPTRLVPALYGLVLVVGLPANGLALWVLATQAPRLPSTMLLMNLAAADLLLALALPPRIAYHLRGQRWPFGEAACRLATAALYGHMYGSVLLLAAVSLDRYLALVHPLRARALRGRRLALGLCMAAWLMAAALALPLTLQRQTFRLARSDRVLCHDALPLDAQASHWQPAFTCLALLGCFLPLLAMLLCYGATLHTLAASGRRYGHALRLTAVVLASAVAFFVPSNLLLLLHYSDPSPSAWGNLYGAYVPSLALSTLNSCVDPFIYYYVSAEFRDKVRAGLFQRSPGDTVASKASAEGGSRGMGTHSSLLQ
Assay: PAR4 FLIPR assay (antagonism of agonist peptide-induced calcium mobilization)
Format: cell-based
Method in brief: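 Antagonism was taken as block of calcium mobilization evoked by the agonist peptide H-Ala-Phe(4-F)-Pro-Gly-Trp-Leu-Val-Lys-Asn-[…]-NH2, added after 30 min room-temperature compound preincubation in dye-loaded PAR4-transfected HEK293 cells (endogenous PAR1). Fluorescence was read on FDSS, with compound addition alone used as the agonist counter-screen; values come from 11-point concentration-response curves.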

Compound | IC50 [nM]
COc1cnc2c(-c3nc4cc(F)c5c(c4s3)C[C@@H](CNC(=O)OCCF)O5)cc(C)cc2n1 [Example 247, (S)-2-fluoroethyl ((5-fluoro-2-(2-methoxy-7-methylquinoxalin-5-yl)-7,8-dihydrobenzofuro[5,4-d]thiazol-7-yl)methyl)carbamate] | 0.7
COc1cnc2c(-c3nc4cc(F)c5c(c4s3)C[C@@H](CNC(=O)Nc3ccccc3)O5)cc(C)cc2n1 [Example 248, (S)-1-((5-fluoro-2-(2-methoxy-7-methylquinoxalin-5-yl)-7,8-dihydrobenzofuro[5,4-d]thiazol-7-yl)methyl)-3-phenylurea] | 7
COc1cnc2c(-c3nc4cc(F)c5c(c4s3)C[C@@H](CNC(=O)OCC(F)(F)F)O5)cc(C)cc2n1 [Example 249, (S)-2,2,2-trifluoroethyl ((5-fluoro-2-(2-methoxy-7-methylquinoxalin-5-yl)-7,8-dihydrobenzofuro[5,4-d]thiazol-7-yl)methyl)carbamate] | 1
COCCOC(=O)NC[C@@H]1Cc2c(c(F)cc3nc(-c4cc(C)cc5nc(OC)cnc45)sc23)O1 [Example 250, (S)-2-methoxyethyl ((5-fluoro-2-(2-methoxy-7-methylquinoxalin-5-yl)-7,8-dihydrobenzofuro[5,4-d]thiazol-7-yl)methyl)carbamate] | 2.3
COc1cnc2c(-c3nc4cc(F)c5c(c4s3)C[C@](C)(COC(=O)Nc3cnc(OCCO)nc3)O5)cc(C)cc2n1 [Example 251, (R)-(5-fluoro-2-(2-methoxy-7-methylquinoxalin-5-yl)-7-methyl-7,8-dihydrobenzofuro[5,4-d]thiazol-7-yl)methyl (2-(2-hydroxyethoxy)pyrimidin-5-yl)carbamate] | 0.9
COc1cnc2c(-c3nc4cc(F)c5c(c4s3)[C@@H](C)[C@H](COC(=O)Nc3cnc(OCCO)nc3)O5)cc(C)cc2n1 [Example 252, ((7R,8R)-5-fluoro-2-(2-methoxy-7-methylquinoxalin-5-yl)-8-methyl-7,8-dihydrobenzofuro[5,4-d]thiazol-7-yl)methyl (2-(2-hydroxyethoxy)pyrimidin-5-yl)carbamate] | 88
COc1cnc2c(-c3nc4cc(F)c5c(c4s3)[C@H](C)[C@@H](CO)O5)cc(Cl)cc2n1 [Example 253, ((7S,8S)-2-(7-chloro-2-methoxyquinoxalin-5-yl)-5-fluoro-8-methyl-7,8-dihydrobenzofuro [5,4-d]thiazol-7-yl)methanol] | 2.7
COc1cnc2c(-c3nc4cc(F)c5c(c4s3)[C@H](C)[C@@H](CO)O5)cc(C#N)cc2n1 [Example 254, 8-((7S,8S)-5-fluoro-7-(hydroxymethyl)-8-methyl-7,8-dihydrobenzofuro[5,4-d]thiazol-2-y 1)-3-methoxyquinoxaline-6-carbonitrile] | 0.6
COC(=O)NC[C@H]1Oc2c(F)cc3nc(-c4cc(C)cc5nc(OC)cnc45)sc3c2[C@@H]1C [Example 255, Methyl (((7S,8S)-5-fluoro-2-(2-methoxy-7-methylquinoxalin-5-yl)-8-methyl-7,8-dihydrobenzofuro[5,4-d]thiazol-7-yl)methyl)carbamate] | 1.4
COc1cnc2c(-c3nc4cc(F)c5c(c4s3)[C@H](C)[C@@H](CNC(=O)OCC(C)C)O5)cc(C)cc2n1 [Example 256, Isobutyl (((7S,8S)-5-fluoro-2-(2-methoxy-7-methylquinoxalin-5-yl)-8-methyl-7,8-dihydrobenzofuro[5,4-d]thiazol-7-yl)methyl)carbamate] | 0.7
COc1cnc2c(-c3nc4cc(F)c5c(c4s3)C[C@@H](CNC(=O)NC3CC3)O5)cc(C)cc2n1 [Example 257, (S)-1-cyclopropyl-3-((5-fluoro-2-(2-methoxy-7-methylquinoxalin-5-yl)-7,8-dihydrobenzofuro[5,4-d]thiazol-7-yl)methyl)urea] | 50
COc1cnc2c(-c3nc4cc(F)c5c(c4s3)C[C@@H](CNC(=O)N3CCOCC3)O5)cc(C)cc2n1 [Example 258, (S)-N-((5-fluoro-2-(2-methoxy-7-methylquinoxalin-5-yl)-7,8-dihydrobenzofuro[5,4-d]thiazol-7-yl)methyl)morpholine-4-carboxamide] | 8.1
CCOc1cnc2c(-c3nc4cc(F)c5c(c4s3)[C@H](C)[C@@H](CO)O5)cc(C)cc2n1 [Example 259, ((7S,8S)-2-(2-ethoxy-7-methylquinoxalin-5-yl)-5-fluoro-8-methyl-7,8-dihydrobenzofuro[5,4-d]thiazol-7-yl)methanol] | 1.1
CCOC(=O)NC[C@@H]1Cc2c(c(F)cc3nc(-c4cc(C)cc5nc(OC)cnc45)sc23)O1 [Example 260, (S)-ethyl ((5-fluoro-2-(2-methoxy-7-methylquinoxalin-5-yl)-7,8-dihydrobenzofuro[5,4-d]thiazol-7-yl)methyl)carbamate] | 1
COc1cnc2c(-c3nc4cc(F)c5c(c4s3)C[C@@H](CNC(=O)OCC(C)(C)C)O5)cc(C)cc2n1 [Example 261, (S)-neopentyl ((5-fluoro-2-(2-methoxy-7-methylquinoxalin-5-yl)-7,8-dihydrobenzofuro[5,4-d]thiazol-7-yl)methyl)carbamate] | 1.1
COc1cnc2c(-c3nc4c(C(O)C(C)(C)C)cc5c(c4s3)OCCO5)cc(C)cc2n1 (stereo not drawn) [Example 262, 1-(2-(2-methoxy-7-methylquinoxalin-5-yl)-7,8-dihydro-[1,4]dioxino[2′,3′:3,4]benzo[1,2-d]thiazol-4-yl)-2,2-dimethylpropan-1-ol] | 2.3
COc1cnc2c(-c3nc4c(C(O)C(C)(C)C)cc5c(c4s3)OCO5)cc(C)cc2n1 (stereo not drawn) [Example 263, 1-(7-(2-methoxy-7-methylquinoxalin-5-yl)-[1,3]dioxolo[4′,5′:3,4]benzo[1,2-d]thiazol-5-yl)-2,2-dimethylpropan-1-ol] | 5.7
COc1cnc2c(-c3nc4c(C(O)C(C)(C)C)cc5c(c4s3)OCCCO5)cc(C)cc2n1 (stereo not drawn) [Example 264, 1-(2-(2-methoxy-7-methylquinoxalin-5-yl)-8,9-dihydro-7H-[1,4]dioxepino[2′,3′:3,4]benzo[1,2-d]thiazol-4-yl)-2,2-dimethylpropan-1-ol] | 15
COc1cnc2c(-c3nc4ccc5c(c4s3)OC[C@H](COC(=O)Nc3cnc(C)nc3)O5)cc(Cl)cc2c1 [Example 266, (R)-(2-(6-chloro-3-methoxyquinolin-8-yl)-7,8-dihydro-[1,4]dioxino[2′,3′:3,4]benzo[1,2-d]thiazol-7-yl)methyl (2-methylpyrimidin-5-yl)carbamate] | 2.1
COc1cnc2c(-c3nc4cc(F)c5c(c4s3)C[C@H](COC(=O)Nc3cnc(C)nc3)O5)cc(Cl)cc2c1 [Example 267, (R)-(2-(6-chloro-3-methoxyquinolin-8-yl)-5-fluoro-7,8-dihydrobenzofuro[5,4-d]thiazol-7-yl)methyl (2-methylpyrimidin-5-yl)carbamate] | 1.8
COc1cnc2c(-c3nc4ccc5c(c4s3)OC[C@H](COC(=O)Nc3cnc(C)nc3)O5)cc(C)cc2c1 [Example 268, (R)-(2-(3-methoxy-6-methylquinolin-8-yl)-7,8-dihydro-[1,4]dioxino[2′,3′:3,4]benzo[1,2-d]thiazol-7-yl)methyl (2-methylpyrimidin-5-yl)carbamate] | 4.4
COc1cnc2c(-c3nc4cc(F)c5c(c4s3)C[C@H](COC(=O)Nc3cnc(C)nc3)O5)cc(C)cc2c1 [Example 269, (R)-(5-fluoro-2-(3-methoxy-6-methylquinolin-8-yl)-7,8-dihydrobenzofuro[5,4-d]thiazol-7-yl)methyl (2-methylpyrimidin-5-yl)carbamate] | 2.7
CCOc1cnc2c(-c3nc4cc(F)c5c(c4s3)C[C@H](COC(=O)Nc3cnc(C)nc3)O5)cc(Cl)cc2c1 [Example 270, (R)-(2-(6-chloro-3-ethoxyquinolin-8-yl)-5-fluoro-7,8-dihydrobenzofuro[5,4-d]thiazol-7-y 1)methyl (2-methylpyrimidin-5-yl)carbamate] | 2.2
CCOc1cnc2c(-c3nc4ccc5c(c4s3)OC[C@H](COC(=O)Nc3cnc(C)nc3)O5)cc(Cl)cc2c1 [Example 271, (R)-(2-(6-chloro-3-ethoxyquinolin-8-yl)-7,8-dihydro-[1,4]dioxino[2′,3′:3,4]benzo[1,2-d]thiazol-7-yl)methyl (2-methylpyrimidin-5-yl)carbamate] | 4.9
Cc1ncc(NC(=O)OC[C@H]2COc3c(ccc4nc(-c5cc(Cl)cc6cc(OC(F)F)cnc56)sc34)O2)cn1 [Example 272, (R)-(2-(6-chloro-3-(difluoromethoxy)quinolin-8-yl)-7,8-dihydro-[1,4]dioxino[2′,3′:3,4]benzo[1,2-d]thiazol-7-yl)methyl (2-methylpyrimidin-5-yl)carbamate] | 3.3
Cc1ncc(NC(=O)OC[C@H]2Cc3c(c(F)cc4nc(-c5cc(Cl)cc6cc(OC(F)F)cnc56)sc34)O2)cn1 [Example 273, (R)-(2-(6-chloro-3-(difluoromethoxy)quinolin-8-yl)-5-fluoro-7,8-dihydrobenzofuro[5,4-d]thiazol-7-yl)methyl (2-methylpyrimidin-5-yl)carbamate] | 6.4
COc1cnc2c(-c3nc4ccc5c(c4s3)OC[C@H](COC(=O)Nc3cnc(C)nc3)O5)cc(C(F)F)cc2c1 [Example 275, (R)-(2-(6-(difluoromethyl)-3-methoxyquinolin-8-yl)-7,8-dihydro-[1,4]dioxino [2′,3′:3,4]benzo[1,2-d]thiazol-7-yl)methyl (2-methylpyrimidin-5-yl)carbamate] | 12
